# Assay results reported in patent US9023789B2, “Amylin analogs and pharmaceutical compositions thereof” (Novo Nordisk A/S, priority 2012, dated 2015).
# Numbered stars: 1 amine (or outer) side, 2 acyl side, 3 side chain; on linkers, the order of the positions; unused ones are H or OH. Bridge positions count the residues as written; N and C are the ends. Side chains are listed from the residue outwards. Peptide text beside a SMILES is read from it. * marks the point of attachment. C20 diacid = O=C(O)CCCCCCCCCCCCCCCCCCC(=O)*; γGlu = O=C(O)[C@H](CCC(=O)[*:2])N[*:1]
# What was measured:
# [1] = molecular target: T1, human amylin 3(a) receptor (human calcitonin receptor + RAMP-3) in BHK570 cells (Homo sapiens, UniProt O60896+P30988); assay: ASSAY (II)a functional assay, human amylin receptor (CRE luciferase); assay type: cell-based
# T1 construct: expressed in transfected cells
# T1 sequence (O60896 24-148): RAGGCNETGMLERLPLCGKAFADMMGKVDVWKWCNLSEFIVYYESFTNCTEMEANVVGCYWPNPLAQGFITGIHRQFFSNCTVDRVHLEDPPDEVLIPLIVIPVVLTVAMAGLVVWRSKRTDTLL
# T1 sequence (P30988 25-474): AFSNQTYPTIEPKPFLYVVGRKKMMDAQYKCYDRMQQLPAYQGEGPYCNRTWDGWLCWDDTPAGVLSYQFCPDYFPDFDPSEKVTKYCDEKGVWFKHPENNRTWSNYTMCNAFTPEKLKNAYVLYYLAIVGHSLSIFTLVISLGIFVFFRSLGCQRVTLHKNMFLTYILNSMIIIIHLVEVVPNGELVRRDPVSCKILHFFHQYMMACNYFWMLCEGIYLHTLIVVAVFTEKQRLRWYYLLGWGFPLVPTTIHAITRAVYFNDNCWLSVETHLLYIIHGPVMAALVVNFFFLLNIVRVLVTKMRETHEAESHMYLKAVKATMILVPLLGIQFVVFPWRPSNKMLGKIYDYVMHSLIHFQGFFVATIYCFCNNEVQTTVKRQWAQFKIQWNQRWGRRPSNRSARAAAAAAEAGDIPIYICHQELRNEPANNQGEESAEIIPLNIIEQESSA
# How it was run: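 Read-out: CRE-driven luciferase luminescence, single photon counting, after 30 min at room temperature with LucLite. BHK cells expressed calcitonin receptor alone or with RAMP-3 (amylin 3(a)). Cells were stimulated 3 h at 37° C in DMEM, 10% FBS, 10 mM Hepes, pH 7.4.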
# [2] = ASSAY (III) ThT fibrillation assay for physical stability; assay type: physicochemical
# How it was run: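 Physical stability scored by ThT fluorescence (444 nm excitation, 485 nm emission) tracked every 20 min during 37 °C incubation with 960 rpm shaking, ThT at 1 μM final. Values are replicate means with SD at chosen times; HPLC against pramlintide standard gives initial and post-assay soluble concentrations.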
# [3] = hCTR funct. EC50 divided by hAmylin-R funct. EC50
# [4] = hCTR funct. EC50 over hAmylin-R funct. EC50
# [5] = human functional selectivity: hCTR funct. EC50 / hAmylin-R funct. EC50
Compound,"Ratio hCT/hAmylin funct. [1, 3]","Ratio hCT/hAmylin funct. [1, 4]","Ratio hCT/hAmylin funct. [1, 5]",ThT pH 4.0 lag time (h) [2]
CC[C@H](C)[C@H](NC(=O)[C@H](C)NC(=O)CNC(=O)[C@H](Cc1ccccc1)NC(=O)[C@H](CC(N)=O)NC(=O)[C@@H]1CCCN1C(=O)[C@H](CO)NC(=O)[C@H](CO)NC(=O)[C@H](Cc1c[nH]cn1)NC(=O)[C@H](CCCNC(=N)N)NC(=O)[C@H](CC(C)C)NC(=O)[C@H](Cc1ccccc1)NC(=O)[C@H](CC(N)=O)NC(=O)[C@H](C)NC(=O)[C@H](CC(C)C)NC(=O)[C@H](CCCNC(=N)N)NC(=O)[C@H](CCC(N)=O)NC(=O)[C@@H](NC(=O)[C@H](C)NC(=O)[C@@H]1CSSC[C@H](NC(=O)[C@@H](N)CCCCNC(=O)CC[C@H](NC(=O)CCCCCCCCCCCCCCC(=O)O)C(=O)O)C(=O)N[C@@H](CC(N)=O)C(=O)N[C@@H]([C@@H](C)O)C(=O)N[C@@H](C)C(=O)N[C@@H]([C@@H](C)O)C(=O)N1)[C@@H](C)O)C(=O)N1CCC[C@H]1C(=O)N[C@@H](CO)C(=O)N[C@@H](CO)C(=O)N[C@H](C(=O)N[C@@H](CC(N)=O)C(=O)N[C@H](C(=O)NCC(=O)N[C@@H](Cc1c[nH]cn1)C(=O)N[C@@H](CC(N)=O)C(=O)N[C@H](C(=O)N[C@@H](Cc1ccc(O)cc1)C(N)=O)[C@@H](C)O)C(C)C)[C@@H](C)O [Example 111],65.1,65.1,65.1,10 h
CC[C@H](C)[C@H](NC(=O)[C@H](C)NC(=O)CNC(=O)[C@H](Cc1ccccc1)NC(=O)[C@H](CC(N)=O)NC(=O)[C@@H]1CCCN1C(=O)[C@H](CO)NC(=O)[C@H](CO)NC(=O)[C@H](Cc1c[nH]cn1)NC(=O)[C@H](CCCNC(=N)N)NC(=O)[C@H](CC(C)C)NC(=O)[C@H](Cc1ccccc1)NC(=O)[C@H](CC(N)=O)NC(=O)[C@H](C)NC(=O)[C@H](CC(C)C)NC(=O)[C@H](CCCNC(=N)N)NC(=O)[C@H](CCC(N)=O)NC(=O)[C@@H](NC(=O)[C@H](C)NC(=O)[C@@H]1CSSC[C@H](NC(=O)[C@@H](N)CCCCNC(=O)CC[C@H](NC(=O)CCCCCCCCCCCCC(=O)O)C(=O)O)C(=O)N[C@@H](CC(N)=O)C(=O)N[C@@H]([C@@H](C)O)C(=O)N[C@@H](C)C(=O)N[C@@H]([C@@H](C)O)C(=O)N1)[C@@H](C)O)C(=O)N1CCC[C@H]1C(=O)N[C@@H](CO)C(=O)N[C@@H](CO)C(=O)N[C@H](C(=O)N[C@@H](CC(N)=O)C(=O)N[C@H](C(=O)NCC(=O)N[C@@H](Cc1c[nH]cn1)C(=O)N[C@@H](CC(N)=O)C(=O)N[C@H](C(=O)N[C@@H](Cc1ccc(O)cc1)C(N)=O)[C@@H](C)O)C(C)C)[C@@H](C)O [Example 112],38.8,38.8,38.8,30 h
CC[C@H](C)[C@H](NC(=O)[C@H](C)NC(=O)CNC(=O)[C@H](Cc1ccccc1)NC(=O)[C@H](CC(N)=O)NC(=O)[C@@H]1CCCN1C(=O)[C@H](CO)NC(=O)[C@H](CO)NC(=O)[C@H](Cc1c[nH]cn1)NC(=O)[C@H](CCCNC(=N)N)NC(=O)[C@H](CC(C)C)NC(=O)[C@H](Cc1ccccc1)NC(=O)[C@H](CCC(=O)O)NC(=O)[C@H](C)NC(=O)[C@H](CC(C)C)NC(=O)[C@H](CCCNC(=N)N)NC(=O)[C@H](CCC(N)=O)NC(=O)[C@@H](NC(=O)[C@H](C)NC(=O)[C@@H]1CSSC[C@H](NC(=O)[C@@H](N)CCCCNC(=O)CC[C@H](NC(=O)CC[C@H](NC(=O)CCCCCCCCCCCCCCCCCCC(=O)O)C(=O)O)C(=O)O)C(=O)N[C@@H](CC(N)=O)C(=O)N[C@@H]([C@@H](C)O)C(=O)N[C@@H](C)C(=O)N[C@@H]([C@@H](C)O)C(=O)N1)[C@@H](C)O)C(=O)N1CCC[C@H]1C(=O)N[C@@H](CO)C(=O)N[C@@H](CO)C(=O)N[C@H](C(=O)N[C@@H](CC(N)=O)C(=O)N[C@H](C(=O)NCC(=O)N[C@@H](Cc1c[nH]cn1)C(=O)N[C@@H](CCC(=O)O)C(=O)N[C@H](C(=O)N[C@@H](Cc1ccc(O)cc1)C(N)=O)[C@@H](C)O)C(C)C)[C@@H](C)O [Example 104] (H-K([γGlu-γGlu-C20 diacid])CNTATCATQRLAEFLRHSSPNFGAIPSSTNVGHETY-NH2; disulfide 2-7; N-terminus assumed),15.8,15.8,15.8,45 h
CC[C@H](C)[C@H](NC(=O)[C@H](C)NC(=O)CNC(=O)[C@H](Cc1ccccc1)NC(=O)[C@H](CC(N)=O)NC(=O)[C@@H]1CCCN1C(=O)[C@H](CO)NC(=O)[C@H](CO)NC(=O)[C@H](Cc1c[nH]cn1)NC(=O)[C@H](CCCNC(=N)N)NC(=O)[C@H](CC(C)C)NC(=O)[C@H](Cc1ccccc1)NC(=O)[C@H](CC(N)=O)NC(=O)[C@H](C)NC(=O)[C@H](CC(C)C)NC(=O)[C@H](CCCNC(=N)N)NC(=O)[C@H](CCC(N)=O)NC(=O)[C@@H](NC(=O)[C@H](C)NC(=O)[C@@H]1CSSC[C@H](NC(=O)[C@H](CCCCN)NC(=O)COCCOCCNC(=O)COCCOCCNC(=O)CC[C@H](NC(=O)CCCCCCCCCCCCCCCCCCC(=O)O)C(=O)O)C(=O)N[C@@H](CC(N)=O)C(=O)N[C@@H]([C@@H](C)O)C(=O)N[C@@H](C)C(=O)N[C@@H]([C@@H](C)O)C(=O)N1)[C@@H](C)O)C(=O)N1CCC[C@H]1C(=O)N[C@@H](CO)C(=O)N[C@@H](CO)C(=O)N[C@H](C(=O)N[C@@H](CC(N)=O)C(=O)N[C@H](C(=O)NCC(=O)N[C@@H](CO)C(=O)N[C@@H](CC(N)=O)C(=O)N[C@H](C(=O)N[C@@H](Cc1ccc(O)cc1)C(N)=O)[C@@H](C)O)C(C)C)[C@@H](C)O [Example 24],23.1,23.1,23.1,34 h

# Other lines, results leading:
"Ratio hCT/hAmylin funct. [1, 3]","Ratio hCT/hAmylin funct. [1, 4]","Ratio hCT/hAmylin funct. [1, 5]",ThT pH 4.0 lag time (h) [2],Compound
8.5,8.5,8.5,45 h,CC[C@H](C)[C@H](NC(=O)[C@H](C)NC(=O)CNC(=O)[C@H](Cc1ccccc1)NC(=O)[C@H](CC(N)=O)NC(=O)[C@@H]1CCCN1C(=O)[C@H](CO)NC(=O)[C@H](CO)NC(=O)[C@H](Cc1c[nH]cn1)NC(=O)[C@H](CCCNC(=N)N)NC(=O)[C@H](CC(C)C)NC(=O)[C@H](Cc1ccccc1)NC(=O)[C@H](CCC(=O)O)NC(=O)[C@H](C)NC(=O)[C@H](CC(C)C)NC(=O)[C@H](CCCNC(=N)N)NC(=O)[C@H](CCC(N)=O)NC(=O)[C@@H](NC(=O)[C@H](C)NC(=O)[C@@H]1CSSC[C@H](NC(=O)[C@@H](N)CCCCNC(=O)CC[C@H](NC(=O)CC[C@H](NC(=O)CCCCCCCCCCCCCCCCCCC(=O)O)C(=O)O)C(=O)O)C(=O)N[C@@H](CC(N)=O)C(=O)N[C@@H]([C@@H](C)O)C(=O)N[C@@H](C)C(=O)N[C@@H]([C@@H](C)O)C(=O)N1)[C@@H](C)O)C(=O)N1CCC[C@H]1C(=O)N[C@@H](CO)C(=O)N[C@@H](CO)C(=O)N[C@H](C(=O)N[C@@H](CC(N)=O)C(=O)N[C@H](C(=O)NCC(=O)N[C@@H](CCCNC(=N)N)C(=O)N[C@@H](CC(N)=O)C(=O)N[C@H](C(=O)N[C@@H](Cc1ccc(O)cc1)C(N)=O)[C@@H](C)O)C(C)C)[C@@H](C)O [Example 88] (H-K([γGlu-γGlu-C20 diacid])CNTATCATQRLAEFLRHSSPNFGAIPSSTNVGRNTY-NH2; disulfide 2-7)
15.3,15.3,15.3,45 h,CC[C@H](C)[C@H](NC(=O)[C@H](C)NC(=O)CNC(=O)[C@H](Cc1ccccc1)NC(=O)[C@H](CC(N)=O)NC(=O)[C@@H]1CCCN1C(=O)[C@H](CO)NC(=O)[C@H](CO)NC(=O)[C@H](Cc1c[nH]cn1)NC(=O)[C@H](CCCNC(=N)N)NC(=O)[C@H](CC(C)C)NC(=O)[C@H](Cc1ccccc1)NC(=O)[C@H](CC(N)=O)NC(=O)[C@H](C)NC(=O)[C@H](CC(C)C)NC(=O)[C@H](CCCNC(=N)N)NC(=O)[C@H](CCC(N)=O)NC(=O)[C@@H](NC(=O)[C@H](C)NC(=O)[C@@H]1CSSC[C@H](NC(=O)[C@@H](N)CCCCNC(=O)CC[C@H](NC(=O)CCCCCCCCCCCCCCCCCCC(=O)O)C(=O)O)C(=O)N[C@@H](CC(N)=O)C(=O)N[C@@H]([C@@H](C)O)C(=O)N[C@@H](C)C(=O)N[C@@H]([C@@H](C)O)C(=O)N1)[C@@H](C)O)C(=O)N1CCC[C@H]1C(=O)N[C@@H](CO)C(=O)N[C@@H](CO)C(=O)N[C@H](C(=O)N[C@@H](CC(N)=O)C(=O)N[C@H](C(=O)NCC(=O)N[C@@H](CO)C(=O)N[C@@H](Cc1c[nH]cn1)C(=O)N[C@H](C(=O)N[C@@H](Cc1ccc(O)cc1)C(N)=O)[C@@H](C)O)C(C)C)[C@@H](C)O [Example 60]
17.0,17.0,17.0,45 h,CC[C@H](C)[C@H](NC(=O)[C@H](C)NC(=O)CNC(=O)[C@H](Cc1ccccc1)NC(=O)[C@H](CC(N)=O)NC(=O)[C@@H]1CCCN1C(=O)[C@H](CO)NC(=O)[C@H](CO)NC(=O)[C@H](Cc1c[nH]cn1)NC(=O)[C@H](CCCNC(=N)N)NC(=O)[C@H](CC(C)C)NC(=O)[C@H](Cc1ccccc1)NC(=O)[C@H](CCC(=O)O)NC(=O)[C@H](C)NC(=O)[C@H](CC(C)C)NC(=O)[C@H](CCCNC(=N)N)NC(=O)[C@H](CCC(N)=O)NC(=O)[C@@H](NC(=O)[C@H](C)NC(=O)[C@@H]1CSSC[C@H](NC(=O)[C@@H](N)CCCCNC(=O)CC[C@H](NC(=O)CCCCCCCCCCCCCCCCCCC(=O)O)C(=O)O)C(=O)N[C@@H](CC(N)=O)C(=O)N[C@@H]([C@@H](C)O)C(=O)N[C@@H](C)C(=O)N[C@@H]([C@@H](C)O)C(=O)N1)[C@@H](C)O)C(=O)N1CCC[C@H]1C(=O)N[C@@H](CO)C(=O)N[C@@H](CO)C(=O)N[C@H](C(=O)N[C@@H](CC(N)=O)C(=O)N[C@H](C(=O)NCC(=O)N1CCC[C@H]1C(=O)N[C@@H](CCCNC(=N)N)C(=O)N[C@H](C(=O)N[C@@H](Cc1ccc(O)cc1)C(N)=O)[C@@H](C)O)C(C)C)[C@@H](C)O [Example 117] (H-K([γGlu-C20 diacid])CNTATCATQRLAEFLRHSSPNFGAIPSSTNVGPRTY-NH2; disulfide 2-7; N-terminus assumed)
